Key:
FLT3 = target: T1, FLT3 (Homo sapiens, UniProt P36888); experiment: Caliper mobility shift kinase inhibition assay, recombinant FLT3; type: biochemical; conditions: recombinant FLT-3 0.1 nM, ATP 95 μM, incubation 3 hr, room temperature
T1 construct: purchased ThermoFisher PV3182
T1 sequence (P36888 27-993): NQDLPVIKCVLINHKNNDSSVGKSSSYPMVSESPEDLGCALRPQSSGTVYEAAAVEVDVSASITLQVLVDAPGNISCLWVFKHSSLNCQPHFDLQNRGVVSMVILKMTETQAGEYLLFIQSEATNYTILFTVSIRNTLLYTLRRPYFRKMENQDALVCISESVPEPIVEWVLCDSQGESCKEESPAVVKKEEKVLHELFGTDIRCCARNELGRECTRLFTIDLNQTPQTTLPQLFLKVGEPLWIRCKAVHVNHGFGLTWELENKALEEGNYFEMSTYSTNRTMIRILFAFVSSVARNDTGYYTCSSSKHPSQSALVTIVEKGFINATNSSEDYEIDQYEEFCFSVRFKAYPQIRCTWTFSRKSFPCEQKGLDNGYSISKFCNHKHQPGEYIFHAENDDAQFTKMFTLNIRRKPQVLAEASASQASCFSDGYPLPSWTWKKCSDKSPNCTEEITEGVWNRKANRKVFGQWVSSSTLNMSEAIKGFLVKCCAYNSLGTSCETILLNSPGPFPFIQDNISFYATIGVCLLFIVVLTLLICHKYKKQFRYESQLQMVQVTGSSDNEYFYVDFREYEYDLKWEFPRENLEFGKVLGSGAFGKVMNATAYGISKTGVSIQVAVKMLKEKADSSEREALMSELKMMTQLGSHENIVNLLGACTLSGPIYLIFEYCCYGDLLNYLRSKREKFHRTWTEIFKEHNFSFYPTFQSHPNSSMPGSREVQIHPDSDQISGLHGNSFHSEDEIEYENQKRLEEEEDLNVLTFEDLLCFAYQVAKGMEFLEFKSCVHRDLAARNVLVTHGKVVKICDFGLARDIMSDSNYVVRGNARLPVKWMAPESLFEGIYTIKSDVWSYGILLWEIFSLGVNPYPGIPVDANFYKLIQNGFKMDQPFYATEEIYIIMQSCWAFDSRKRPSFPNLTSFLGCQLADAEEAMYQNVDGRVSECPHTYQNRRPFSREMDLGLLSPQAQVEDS
Procedure: Compounds' inhibition of recombinant kinases (FLT3, KIT) was measured using Caliper mobility shift assay, which is based on the difference in capillary electrophoresis mobility of a fluorescent-tagged peptide as a result of a phosphorylation by the kinase under study. Reactions were started by the addition of various concentrations of a compound (originally in DMSO solution) to a kinase solution in assay buffer followed by addition of a mixture of ATP and a fluorescent-tagged peptide substrate in assay buffer. Concentrations of the enzyme, ATP and thepeptide were pre-optimized so that 15% substrate conversion to ensure initial velocity measurements. After incubation for 3 hours at room temperature, the kinase reaction was quenched by the addition of a concentrated EDTA solution before analysis on a LabChip EZ Reader II to yield percentage inhibition by comparing to the DMSO control. Table 2 below summarizes the assay conditions for the characterization of the kinase inhibition properties of the disclosed compounds.

KIT = target: T2, KIT (Homo sapiens, UniProt P10721); experiment: Caliper mobility shift kinase inhibition assay, recombinant KIT; type: biochemical; conditions: recombinant KIT 0.9 nM, ATP 400 μM, incubation 17 hr (Table 2)
T2 construct: purchased BPS 40250
T2 sequence (P10721 26-976): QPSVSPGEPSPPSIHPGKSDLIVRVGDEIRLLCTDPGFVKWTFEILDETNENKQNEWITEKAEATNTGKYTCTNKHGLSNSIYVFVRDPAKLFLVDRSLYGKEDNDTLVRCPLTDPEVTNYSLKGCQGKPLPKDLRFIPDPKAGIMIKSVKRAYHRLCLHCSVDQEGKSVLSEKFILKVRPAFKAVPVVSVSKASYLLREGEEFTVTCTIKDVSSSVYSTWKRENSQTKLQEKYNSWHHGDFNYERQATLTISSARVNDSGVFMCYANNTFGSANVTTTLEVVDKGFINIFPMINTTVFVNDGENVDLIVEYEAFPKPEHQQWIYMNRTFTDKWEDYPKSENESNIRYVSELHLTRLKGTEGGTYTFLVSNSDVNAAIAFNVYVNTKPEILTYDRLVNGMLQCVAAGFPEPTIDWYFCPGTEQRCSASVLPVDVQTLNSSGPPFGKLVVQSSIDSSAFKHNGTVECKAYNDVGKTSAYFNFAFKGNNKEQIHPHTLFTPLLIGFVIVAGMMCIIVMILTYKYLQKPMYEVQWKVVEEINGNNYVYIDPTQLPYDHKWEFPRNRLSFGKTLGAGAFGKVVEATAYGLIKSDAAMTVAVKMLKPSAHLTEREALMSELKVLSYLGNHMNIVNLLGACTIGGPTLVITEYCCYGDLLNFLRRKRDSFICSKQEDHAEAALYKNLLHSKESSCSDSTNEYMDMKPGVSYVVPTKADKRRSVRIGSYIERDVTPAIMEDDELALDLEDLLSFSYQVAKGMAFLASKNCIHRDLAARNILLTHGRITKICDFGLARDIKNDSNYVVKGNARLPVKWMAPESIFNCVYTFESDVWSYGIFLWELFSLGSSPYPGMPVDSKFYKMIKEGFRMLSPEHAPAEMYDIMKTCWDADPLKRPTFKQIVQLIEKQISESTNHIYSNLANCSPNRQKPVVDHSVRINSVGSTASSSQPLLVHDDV

MV4-11 = experiment: Cell viability assay (CellTiter-Glo), FLT3 cell-based assay; conditions: Homo sapiens, MV4-11 cells, 72 hr at 37° C., 0.1% DMSO
Procedure: Cell viability assay was performed based on the following brief procedures. Cells were plated at the density of 5K/well with volume of 180 μL in 96-well white plate and clear bottom plates. 20 μL of veh. or compound was added at proper concentration to the well. The final volume is 200 μL, with final conc. of DMSO=0.1%, 11 points, triplicates. The cells were then treated at 37° C. in the TC incubator for 72 hr. Equal volume (200 μL) of CellTiter-Glo reagent (Promega) was added to the well and protect from light at room temperature for 15 min. The chemiluminescence was measured with EnSight (Perkin Elmer). GraphPad Prism non-linear regression, Log[inhibitor] response with four parameters were used to calculate GI50.

Compound | IC50 (FLT3) | IC50 (KIT) | GI50 (MV4-11)
C=CC(=O)N1CCC[C@H]1C(=O)NCCn1cnc2cnc(Nc3ncc(-c4ccc(F)cc4)s3)cc21 [Example 5] | < 1 nM | < 1 nM | < 10 nM
C=CC(=O)N1CCC[C@H]1C(=O)NCCn1cnc2cnc(Nc3ncc(-c4ccncc4F)s3)cc21 [Example 8, (2S)-N-[2-[6-[[5-(3-fluoro-4-pyridyl)thiazol-2-yl]amino]imidazo[4,5-c]pyridin-1-yl]ethyl]-1-prop-2-enoyl-pyrrolidine-2-carboxamide] | < 1 nM | < 1 nM | < 10 nM
C=CC(=O)N1CCC[C@H]1C(=O)NCCn1cnc2cnc(Nc3ncc(-c4ncccc4F)s3)cc21 [Example 9, (2S)-N-[2-[6-[[5-(3-fluoro-2-pyridyl)thiazol-2-yl]amino]imidazo[4,5-c]pyridin-1-yl]ethyl]-1-prop-2-enoyl-pyrrolidine-2-carboxamide] | < 1 nM | < 1 nM | < 10 nM
C=C(F)C(=O)N1CCC[C@H]1C(=O)NCCn1cnc2cnc(Nc3ncc(-c4ncccc4F)s3)cc21 [Example 10] | 1 to 10 nM | 10 to 100 nM | < 10 nM
C/C=C\C(=O)N1CCC[C@H]1C(=O)NCCn1cnc2cnc(Nc3ncc(-c4ncccc4F)s3)cc21 [Example 11, (2S)-1-[(Z)-but-2-enoyl]-N-[2-[6-[[5-(3-fluoro-2-pyridyl)thiazol-2-yl]amino]imidazo[4,5-c]pyridin-1-yl]ethyl]pyrrolidine-2-carboxamide] | 1 to 10 nM | 100 to 1000 nM | 10 to 100 nM
C=CC(=O)N1CCOC[C@H]1C(=O)NCCn1cnc2cnc(Nc3ncc(-c4ncccc4F)s3)cc21 [Example 12, (3S)-N-[2-[6-[[5-(3-fluoro-2-pyridyl)thiazol-2-yl]amino]imidazo[4,5-c]pyridin-1-yl]ethyl]-4-prop-2-enoyl-morpholine-3-carboxamide] | < 1 nM | 10 to 100 nM | < 10 nM
C=CC(=O)N1C[C@H](O)C[C@H]1C(=O)NCCn1cnc2cnc(Nc3ncc(-c4ccc(F)cc4)s3)cc21 [Example 13, (2S,4R)-N-[2-[6-[[5-(4-fluorophenyl)thiazol-2-yl]amino]imidazo[4,5-c]pyridin-1-yl]ethyl]-4-hydroxy-1-prop-2-enoylpyrrolidine-2-carboxamide] | < 1 nM | < 1 nM | 10 to 100 nM
C=CC(=O)N1C[C@@H](O)C[C@H]1C(=O)NCCn1cnc2cnc(Nc3ncc(-c4ccc(F)cc4)s3)cc21 [Example 14, (2S,4S)-N-[2-[6-[[5-(4-fluorophenyl)thiazol-2-yl]amino]imidazo[4,5-c]pyridin-1-yl]ethyl]-4-hydroxy-1-prop-2-enoylpyrrolidine-2-carboxamide] | < 1 nM | < 1 nM | < 10 nM
C=CC(=O)N1CC[C@H](O)[C@H]1C(=O)NCCn1cnc2cnc(Nc3ncc(-c4ccc(F)cc4)s3)cc21 [Example 15, (2S,3S)-N-[2-[6-[[5-(4-fluorophenyl)thiazol-2-yl]amino]imidazo[4,5-c]72yridine-1-yl]ethyl]-3-hydroxy-1-prop-2-enoylpyrrolidine-2-carboxamide] | < 1 nM | < 1 nM | < 10 nM
C=CC(=O)N1C[C@H](O)C[C@H]1C(=O)NCCn1cnc2cnc(Nc3ncc(-c4ncncc4F)s3)cc21 [Example 21, (2S,4R)-N-[2-[6-[[5-(5-fluoropyrimidin-4-yl)thiazol-2-yl]amino]imidazo[4,5-c]pyridin-1-yl]ethyl]-4-hydroxy-1-prop-2-enoyl-pyrrolidine-2-carboxamide] | 1 to 10 nM | 10 to 100 nM | 10 to 100 nM
C=CC(=O)N1CCOC[C@H]1C(=O)NCCn1cnc2cnc(Nc3ncc(-c4ncncc4F)s3)cc21 [Example 22, (3S)-N-[2-[6-[[5-(5-fluoropyrimidin-4-yl)thiazol-2-yl]amino]imidazo[4,5-c]pyridin-1-yl]ethyl]-4-prop-2-enoyl-morpholine-3-carboxamide] | < 1 nM | < 1 nM | < 10 nM

Reference: patent US20250170107A1, “IMIDAZOPYRIDINE INHIBITORS OF TYROSINE KINASE” (BridGene Biosciences. Inc., priority 2022, published 2025)
